Where two headings read alike, the source gives them in different places.
How the values were obtained:
[1] = system: 60 cancer cell lines (NCI 60 cancer cell line series); conditions: cited from earlier work
[2] = system: 60 cancer cell lines (NCI 60 cancer cell line series); experiment: NCI-DTP in vitro cancer screen, sulforhodamine B (SRB) growth inhibition, 48 hour exposure; type: cell-based, human
Method in brief: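 NCI-DTP panel of 60 cancer cell lines plated day 0 at line-specific densities, exposed from day 1 to compound at 5 ten-fold-spaced doses in duplicate wells. After 48 h, cell mass stained with sulforhodamine B; −log GI50 derived from dose–response curves, averaged, and classed Low, Medium or High sensitivity.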

For `O=c1[nH]cc(F)c(=O)[nH]1` [5-Fluorouracil], the “−Log (GI50)” value ([1]; Melanoma SK-MEL-2 CL10005) is given as 3.3, the “−Log (GI50)” value ([1]; Melanoma SK-MEL-5 CL10007) is given as 4.9 and the “−Log (GI50)” value ([1]; Melanoma SK-MEL-28 CL10008) is given as 4.5. For the same molecule, the “−Log (GI50)” value ([1]; Melanoma UACC-62 CL10020) was 4.9, the “−Log (GI50)” value ([1]; Melanoma UACC-257 CL10021) was 3.9 and the “−Log (GI50)” value ([1]; NSCLC A549/ATCC CL1004) was 5.7. For the same molecule, the “−Log (GI50)” value ([1]; NSCLC EKVX CL1008) was 3.3, the “−Log (GI50)” value ([1]; NSCLC HOP-62 CL1026) was 4.8 and the “−Log (GI50)” value ([1]; NSCLC HOP-92 CL1029) was 4.0. The “−Log (GI50)” value ([1]; NSCLC NCI-H226 CL1013) was 3.6, the “classification of cell line as Low(1), Medium(2), High(3) sensitivity to compound” value (shortened to “classification of cell line”) ([2]; Breast BT-549 CL5013) was 1 and the “classification of cell line” value ([2]; Breast HS-578T CL5006) was 1. The “classification of cell line” value ([2]; Breast MCF7(I) CL5001) was 3, the “classification of cell line” value ([2]; Breast MCF7/ADRr CL5002) was 2 and the “classification of cell line” value ([2]; Breast MDA-MB-231 CL5005) was 1. The “classification of cell line” value ([2]; Breast MDA-MB-435 CL5011) was 2, the “classification of cell line” value ([2]; Breast MDA-N CL5012) was 2 and the “classification of cell line” value ([2]; Breast T-47D CL5014) was 2. For the same molecule, the “classification of cell line” value ([2]; CNS SF-268 CL12014) was 2, the “classification of cell line” value ([2]; CNS SF-295 CL12015) was 2 and the “classification of cell line” value ([2]; CNS SF-539 CL12016) was 3. The “classification of cell line” value ([2]; CNS SNB-19 CL12002) was 1, the “classification of cell line” value ([2]; CNS SNB-75(I) CL12005) was 1 and the “classification of cell line” value ([2]; CNS U251(I) CL12009) was 2. For the same molecule, the “classification of cell line” value ([2]; Colon COLO-250 CL4010) was 2, the “classification of cell line” value ([2]; Colon HCC-2998 CL4002) was 3 and the “classification of cell line” value ([2]; Colon HCT-15 CL4015) was 2. For the same molecule, the “classification of cell line” value ([2]; Colon HCT-116 CL4003) was 3, the “classification of cell line” value ([2]; Colon HT29(I) CL4001) was 2 and the “classification of cell line” value ([2]; Colon KM12 CL4017) was 2. For the same molecule, the “classification of cell line” value ([2]; Colon SW-620 CL4009) was 2, the “classification of cell line” value ([2]; Leukemia CCRF-CEM(I) CL7003) was 2 and the “classification of cell line” value ([2]; Leukemia HL-60(I) CL7008) was 2. The “classification of cell line” value ([2]; Leukemia K562(I) CL7005) was 2, the “classification of cell line” value ([2]; Leukemia MOLT-4 CL7006) was 2 and the “classification of cell line” value ([2]; Leukemia RPMI-8226(I) CL7010) was 3. For the same molecule, the “classification of cell line” value ([2]; Leukemia SR CL7019) was 2, the “classification of cell line” value ([2]; Melanoma LOX IMVI CL10001) was 2 and the “classification of cell line” value ([2]; Melanoma M14 CL10014) was 2. The “classification of cell line” value ([2]; Melanoma MALME-3M CL10002) was 2, the “classification of cell line” value ([2]; Melanoma SK-MEL-2 CL10005) was 1 and the “classification of cell line” value ([2]; Melanoma SK-MEL-28 CL10008) was 2. For the same molecule, the “sensitivity classification Low(1)/Medium(2)/High(3)” value ([2]; NSCLC NCI-H23(I) CL1001) was 2, the “sensitivity classification Low(1)/Medium(2)/High(3)” value ([2]; NSCLC NCI-H332M CL1017) was 2 and the “sensitivity classification Low(1)/Medium(2)/High(3)” value ([2]; NSCLC NCI-H460 CL1021) was 3. The “sensitivity classification Low(1)/Medium(2)/High(3)” value ([2]; NSCLC NCI-H522 CL1003) was 2, the “sensitivity classification Low(1)/Medium(2)/High(3)” value ([2]; Ovarian IGROV1 CL6010) was 2 and the “sensitivity classification Low(1)/Medium(2)/High(3)” value ([2]; Ovarian OVCAR-3 CL6001) was 2. The “sensitivity classification Low(1)/Medium(2)/High(3)” value ([2]; Ovarian OVCAR-4 CL6002) was 2, the “sensitivity classification Low(1)/Medium(2)/High(3)” value ([2]; Ovarian OVCAR-5 CL6003) was 1 and the “sensitivity classification Low(1)/Medium(2)/High(3)” value ([2]; Ovarian OVCAR-8 CL6005) was 2. For the same molecule, the “sensitivity classification Low(1)/Medium(2)/High(3)” value ([2]; Ovarian SK-OV-3 CL6011) was 1, the “sensitivity classification Low(1)/Medium(2)/High(3)” value ([2]; Prostate DU-145 CL11003) was 2 and the “sensitivity classification Low(1)/Medium(2)/High(3)” value ([2]; Prostate PC-3(I) CL11001) was 2. The “sensitivity classification Low(1)/Medium(2)/High(3)” value ([2]; Renal 786-0 CL9018) was 2, the “sensitivity classification Low(1)/Medium(2)/High(3)” value ([2]; Renal A498 CL9013) was 2 and the “sensitivity classification Low(1)/Medium(2)/High(3)” value ([2]; Renal ACHN CL9023) was 2. The “sensitivity classification Low(1)/Medium(2)/High(3)” value ([2]; Renal CAKI-1 CL9015) was 3, the “sensitivity classification Low(1)/Medium(2)/High(3)” value ([2]; Renal RXF-393 CL9016) was 2 and the “sensitivity classification Low(1)/Medium(2)/High(3)” value ([2]; Renal SN12C CL9008) was 2. The “sensitivity classification Low(1)/Medium(2)/High(3)” value ([2]; Renal TK10 CL9024) was 1 and the “sensitivity classification Low(1)/Medium(2)/High(3)” value ([2]; Renal UO-31 CL9004) was 2.

Source: patent US20030129629A1, “Methods and compositions for the identification, assessment, prevention, and therapy of human cancers” (Millennium Pharmaceuticals, Inc., priority 2000, published 2003)
